Measured values published in patent US10759754B2, “Aminobenzoic acid derivatives for use as anti-inflammatory agents, anti-metastatic agents and/or anticancer agents” (3R VALO, S.E.C., priority 2016, dated 2020).
Entries after “also recorded” stand apart in the source; their conditions may differ.

What was measured:
MB49 tumors = assay: Ectopic UBC model, non-muscle invasive MB49 tumors in male mice; format: in vivo; settings: i.p. 90 and 150 μM
Method: Ectopic UBC model. Male C57BL/6J mice (6-8 weeks old), each weighing 15-18 g, were used for the experiments (supplied by Charles River). The mice were housed with free access to food and water on a 12:12 h light:dark cycle with the room temperature maintained at 21° C. MB49 cells, MB49-I cells, and iNOS-deficient MB49-I cells ([…] in 100 μL PBS) were injected subcutaneously (s.c.) into the right flank of the mice. Growth rates of the s.c. tumors were monitored. The size of tumors was determined every 3 days for 24-28 days using a digital caliper and by measuring luciferin luminescence at days 15 and 25 using the IVIS imaging system. A blinded observer measured tumor length and width. The volume of the tumor was calculated from the formula: Length×width2×0.52, where length and width were tumor diameters measured with calipers in mutually perpendicular directions. At a tumor size of approximately 10 mm^3 the mice were divided into different groups. A control group received PBS as treatment. As indicated, other groups were treated at different doses (90, 150 or 300 μM) with an intraperitoneal (i.p.) injection of compounds 4 or 8 every 3-4 days for 18-20 days.^24,27

STAT1 = assay: Western blot of phosphorylated STAT1 in IFNγ-activated human macrophages; format: cell-based; settings: human macrophages pretreated 30 min at 10 and 50 μM; 30 min activation with 50 U/mL IFNγ
Method: (§1) Cell signaling studies: THP1-derived human macrophages (750×10^3 cells/mL) and MB49-I cells (500×10^3 cells/mL) were pretreated for 30 min with vehicle (DMSO), compounds 4 and 5, at 10, 25 or 50 μM; and then washed and recovered immediately (t=0 min) or after 30 min of activation with 50 U/mL IFNγ, 25 ng/mL IL6, or 10 ng/mL TNFα. Cell lysates were prepared and analyzed by immunoblotting as described.^21-23,25 Briefly, protein samples were resolved by SDS-PAGE under reducing conditions and transferred onto a PVDF membrane. Blots were first probed with rabbit polyclonal antibodies against phospho-STAT1 (pSTAT1), pSTAT3, or p-IκB (all at 1:2000) overnight at 4° C. Blots were then incubated with HRP-conjugated goat anti-rabbit IgG Ab (1:3000) for 1 h at room temperature. The same blots were stripped and then probed with anti-STAT1 or anti-STAT3 Abs (both at 1:1000). In both cases, probed molecules were visualized using an enhancement chemiluminescence detection kit (Thermo Fisher Scientific).

[1] = test system: TNFα/NFκB signaling pathway; assay: Western blot of TNFα/NFκB signaling in MB49-I cells; format: cell-based, murine; settings: doses as lower as 10 μM
Method: as §1

STAT3 = assay: Western blot of phosphorylated STAT3 in IL6-activated human macrophages; format: cell-based; settings: human macrophages pretreated 30 min at 10 and 50 μM; 30 min activation with 25 ng/mL IL6
Method: as §1

NFκB = assay: NFκB-responsive luciferase assay in MB49-I cells; format: cell-based, murine; settings: 50 μM
Description: Luciferase assay. To assess the transcriptional activity of NFκB in response to TNFα, MB49-I cells cultured in monolayers (7.5×10^4 cells/well in 24-well plates) were transiently transfected with an expression vector allowing the transcription of the firefly luciferase reporter gene under the control of CMV promoter and tandem repeats of the NFκB transcriptional response element. The luciferase gene encodes a 61-kDa enzyme that oxidizes D-luciferin in the presence of ATP, oxygen, and Mg^++, yielding a […] product that can be quantified by measuring the released light. Transfection was performed using Opti-MEM reduced serum media and Lipofectamine 2000 (Thermo Fisher Scientific). Then, MB49-I cells were pretreated for 30 min with vehicle (DMSO) and compound 4 (at 10 μM or 30 μM); and then washed and recovered after 24 h of activation with 10 ng/mL or 50 ng/mL TNFα. Cell lysates were mixed with Luciferase assay reagent (a mixture of luciferine, coenzyme A, ATP and Mg^2+) and the light produced was measured using a luminometer.

UBC cell line MB49-I = assay: IFNγ/TNFα-induced NO production (Griess) in MB49-I cells; format: cell-based, murine; settings: 10 and 50 μM
Method: Evaluation of NO and Urea production by chemical methods. The MB49-I cells and the J774A.1 cells (25×10^3 cells/well) were grown and pretreated, as indicated, with various anti-inflammatory derivatives, precursors and mono-functional derivatives for a period of 3 h. Afterwards the cells were washed twice with 10% FBS RPMI-1640 and then activated to produce NO for a period of 24 h with cytokines INFγ and TNFα. NO production was measured using the Griess reagent method as previously described.^27 This method involves the detection of nitrite ions (NO2^−) formed by the spontaneous oxidation of NO under physiological conditions. According the manufacture procedure (Life Technologies; # G-7921), equal volumes of sulfanilic acid and N-(1-naphthyl)ethylenediamine are mixed together to form the Griess reagent. In the presence of NO2^−, sulfanilic acid is converted to a diazonium salt, which in turn is coupled to N-(1-naphthyl)ethylenediamine to produce a pink coloration that is measured with a spectrophotometer (Biotek, synergy HT) at 548 nm. In the same manner, urea synthesis through arginase-1 activity was measured using commercially available kit.

human UBC T24 cells = assay: Motility (scratch) assay, IL6-induced, in T24 cells; format: cell-based; settings: 30 μM
[2] = test system: IL6/STAT3 signaling pathway; assay: Western blot of IL6/STAT3 signaling in MB49-I cells; format: cell-based, murine; settings: doses as lower as 10 μM
Method: as §1

MB49-I tumors = assay: Orthotopic UBC model, MB49-I tumors implanted in the bladder of female mice; format: in vivo; settings: i.p. biweekly at 150 μM during two weeks
Method: Orthotopic UBC model. Female C57BL/6J mice (6-8 weeks old), each weighing 15-18 g, were anesthetized and a 24-gauge Teflon catheter was introduced into the bladder lumen through the urethra. To prepare the bladder for tumor implantation, a point lesion was induced in the bladder wall by electrocauterization. Then, 1×10^5 of MB49-I cells in 100 μl of PBS were instilled into the bladder. When indicated, control mice were electrocauterized and PBS was instilled into the bladder. Syringes containing the cell suspension were maintained into the catheter for 20 min to allow cell attachment to the bladder wall.^24,27

C57Bl/6J mice = assay: Acute toxicity study with episodic i.p. injections in C57Bl/6J mice; format: in vivo
[3] = i.p. 0, 90, 150, 300 μM during 3 weeks

Compound: CC(C)(C)OC(=O)NNC(=O)c1ccc(N2C(=O)C=CC2=O)cc1 [Compound 4, N′-[4-(2,5-dioxo-2,5-dihydro-pyrrol-1-yl)-benzoyl]-hydrazine carboxylic acid tert-butyl ester]
- size of subcutaneously implanted MB49 tumors (MB49 tumors): significant reduction; also recorded: significantly reduce
- IFNγ-induced STAT1 activation (ratio of phosphorylated/no phosphorylated proteins) (STAT1): decreased; also recorded: efficiently inhibited
- TNFα/NFκB signaling pathway (Western blot) [1]: inhibit; also recorded: efficiently inhibited
- IL6-induced STAT3 activation (ratio of phosphorylated/no phosphorylated proteins) (STAT3): decreased; also recorded: efficiently inhibited
- NFκB activation (luciferase assay) (NFκB): efficiently inhibited
- combined IFNγ/TNFα-induced NO synthesis (UBC cell line MB49-I): efficiently inhibited
- IL6-induced motility (scratch assay) (human UBC T24 cells): inhibit; also recorded: efficiently inhibited
- IL6/STAT3 signaling pathway (Western blot) [2]: inhibit; also recorded: efficiently inhibited
- development of muscle-invasive MB49-I tumors in the bladder (MB49-I tumors): stopped; also recorded: completely abolished
- tolerability in mice (C57Bl/6J mice; concentrations up to 300 μM): well tolerated
- hematocrit (C57Bl/6J mice; [3]): no obvious effect
- normal development and viability (C57Bl/6J mice; [3]): no obvious effect
- organs weight (C57Bl/6J mice; [3]): no obvious effect
- liver histological analysis (hepatocellular injury, inflammation, fibrosis, steatosis) (C57Bl/6J mice; i.p. up to 300 μM during 3 weeks): no evidence of toxicity; also recorded: does not induce features of liver dysfunction
